Measured values: patent publication US7357916B2, “Method for creating a uniform vascular wound in zebrafish or zebrafish larva” (priority 2002, dated 2008)
Like-named read-outs stand apart in the source and are kept apart here.

Columns and labels:
zebrafish larvae [1] = test: Vascular occlusion by laser irradiation, time to occlusion (TTO); assay type: in vivo; details: normal TTO 17±5.0 seconds; for Time to occlusion (TTO), laser irradiation assays: embryos microinjected with morpholino, screened at 3 dpf
Protocol: For laser irradiation treatment, 1 to 5 larvae (3 mm) were placed in 250 μL of water and anesthetized with 10 μl of Tricaine solution (300 μmol/L, Sigma, MO). 250 μL of 1% low-melting agarose solution (at 40° C.) were added to the anesthetized larvae and each larva, along with approximately 100 μL of agarose solution, was positioned inside a viewing well that was formed by placing a plastic ring on a glass microscope slide. Before treatment, water was allowed to soak into the agarose blocks to wash out the anesthetic. Pulsed nitrogen laser light pumped through coumarin 440 dye (445 nm) (MicroPoint Laser system, Photonic Instruments Inc, IL) at seven pulses/second was delivered to larvae for five seconds through a 10× objective on a Nikon Optiphot microscope. The progress of occlusion was recorded using a Nikon CoolPix 995 CCD camera.
Larvae at 2 and 3 dpf were treated with warfarin as described (Hanumanthaiah et al., 2001, specifically incorporated herein by reference) for 24 hours. Larvae were rinsed in water and tested with either chemical or laser methods of vessel injury. Morpholinos (Discovery Genomics Inc.) were designed against 5′-UTR around the translational start site of zebrafish factor VII (Sheehan et al., 2001, specifically incorporated herein by reference or factor VIIi (Hanumanthaiah et al., 2002, specifically incorporated herein by reference). Sequences were as follows:
For each morpholino a working solution (2 mg/mL) was prepared as previously described (Nasevicius & Ekker, 2000, specifically incorporated herein by reference). Embryos were generated by in vitro fertilization as described (Westerfield, 2000, specifically incorporated herein by reference) and 9 nL of either morpholino solution were injected into the yolk of embryos at the single to four cell stages. Control embryos were microinjected with an equal volume of PBS. Embryos were maintained at 28° C. and screened at 3 dpf.

zebrafish larvae [2] = system: zebrafish larvae
Protocol: (§1) For screening studies, larvae at three to five days postfertilization (dpf) were placed in 500 μL of water and an equal volume of phenylhydrazine (40 mmol/L phenylhydrazine HCl (PHZ), Sigma, MO) or FeCl3 (40 mmol/L) solution was added. Each larva, along with 9 μL of solution, was placed in a 3 mm×1 mm×3 mm well of an acrylic viewing chamber (narrow wells limited the motion of larvae for better viewing). For recording purposes, larvae were also immobilized in agarose, as described below, and 100 μl of either FeCl3 or PHZ were layered on top of the agarose block. Vascular occlusion was recorded using an inverted Olympus microscope equipped with a Javelin MOS solid-state camera (Japan) connected to a VHS recorder.

zebrafish larvae [3] = test: Vascular occlusion with phenylhydrazine, time to occlusion (TTO); assay type: in vivo
Protocol: as §1

erythrocytes = test: Annexin V binding, flow cytometry of blood cells from treated adult zebrafish; assay type: in vivo; details: 5 mmol/L for five minutes, FITC annexin V
Protocol: Adult zebrafish were placed in a 500 mL solution of phenylhydrazine (5 mmol/L phenylhydrazine HCl, pH 7.2 in 20 mmol/L Tris) or FeCl3 (5 mmol/L) for five minutes and then rinsed with de-ionized water. Two μL of blood were collected, as described (Jagadeeswaran et al., 2000a, specifically incorporated herein by reference), from control or treated zebrafish and blood cells were isolated by centrifugation of the blood sample at 800 g for two minutes, followed by removal of the supernatant. The cell pellet was washed once with 200 μL of PBS, centrifuged and resuspended in 200 μL of binding buffer (ApoAlert; Clontech, Calif.) followed by addition of 5 μL of FITC conjugated Annexin-V (Clontech, Calif.). Samples were incubated for ten minutes in dark at 25° C. and visualized ulsing a 20× UplanApo objective on an Olympus FV500 confocal microscope or processed by flow cytometry (Gregory & Jagadeeswaran, 2002).

[4] = larvae treated with warfarin for 24 hours

Molecule: 5′-CAAGCAGCAGACTC ATATTTACTGC-3′ (SEQ ID NO:1) (antisense CAAGCAGCAGACTCATATTTACTGC; all phosphorodiamidate morpholino (PMO)) [FVIIas]
- Time to occlusion (TTO), laser irradiation assays (zebrafish larvae [1]): 55 ± 9 s

Molecule: 5′-GTCACTGACCTCAGCCTGTTCACAA-3′ (SEQ ID NO:2) (morpholino, further chemistry not given here) [FVIIias]
- Time to occlusion (TTO), laser irradiation assays (zebrafish larvae [1]): 9 ± 3 s

Molecule: [Cl][Fe]([Cl])[Cl] [FeCl3, ferric chloride]
- Time to occlusion (TTO) induced by the agent, mean±standard deviation (zebrafish larvae [2]; wild type larvae at three dpf, n=1000): 6 ± 2 min

Molecule: CC(=O)CC(c1ccccc1)c1c(O)c2ccccc2oc1=O (centres unmarked) [Warfarin, warfarin]
- Time to occlusion (TTO), laser irradiation injury (zebrafish larvae [1]; [4]): > 1 min
- Effect on TTO in phenylhydrazine induced vascular occlusion (zebrafish larvae [3]; [4]): did not affect TTO
- Time to occlusion (TTO), FeCl3 injury (zebrafish larvae [2]; larvae treated with warfarin for 24 hours, normal TTO 6±2 minutes): > 10 min

Molecule: Cl.NNc1ccccc1 [phenylhydrazine, phenylhydrazine HCl]
- Time to occlusion (TTO) induced by the agent, mean±standard deviation (zebrafish larvae [3]; wild type larvae at four dpf, n=500): 10 ± 2.5 min
- Erythrocytes exhibiting externalization of PS (erythrocytes): approximately 18%
